Reference: patent US9050347B2, “1,2,4-oxadiazole derivatives as drugs modulating the GLP-1 peptide receptor” (VIVIABIOTECH, S.L., priority 2011, dated 2015)

Experiments:
[1] = tested on: rat insulinoma cells (INS1E cells); experiment: In vitro insulin secretion assay in INS1E cells; assay type: cell-based; details: for enhancement of glucose-dependent insulin release caused by GLP-1 / direct activation of glucose-activated insulin secretion: rat insulinoma cells; for enhancement of glucose-dependent insulin release caused by GLP-1: GLP-1 10 nM, FIG. 3; for direct activation of glucose-activated insulin secretion: compound alone, FIG. 2
Protocol: The insulin secretion studies were performed in INS1E cells cultured in RPMI 1640 medium (Invitrogen, Switzerland) containing 11 mM glucose. The culture medium was supplemented with 10 mM Hepes (pH 7.3), 10% (v/v) heat-inactivated fetal bovine serum (Brunschwig AG, Switzerland), […] b-mercaptoethanol, 1 mM sodium pyruvate, […] penicillin and […] streptomycin (INS medium). Static secretion studies were performed in culture plates with a diameter of 2.5 cm in which the cells were grown until reaching confluence criteria. The in vitro studies allowed identifying compounds with intrinsic capacity to release insulin (FIG. 2) or which enhance the incretin actions of GLP-1 (FIGS. 3, 4 and 5).

[2] = Parenteral glucose overload assay; assay type: in vivo, male Wistar rats
Protocol: All the in vivo experiments were performed using male Wistar rats with a weight of 200-450 g. The animals were housed in individual cages in a room with controlled temperature (23° C.) and humidity (50%) with a 12/12 light and dark cycle. The animals had water and food ad libitum except in specific experimental procedures. The animals were handled once a day during the two days before the experimental sessions. All the products were dissolved in a mixture of 5% DMSO, 5% Tween 60/90% saline and intraperitoneally administered. The vehicle was 0.9% sterile saline for the parenteral glucose overload.
The parenteral glucose overload assay was performed in male Wistar rats (Harlan, Barcelona) deprived of food for 18 hours. The animals received an injection of sterile saline containing glucose which was administered at the dose of 2 gr/kg in a volume of 2 ml/kg. The plasma glucose levels were measured by means of glucometers in tail blood using reactive strips of glucose oxidase, at times 0, 5, 10, 15, 30, 45, 60 and 120 minutes after the administration of glucose. The animals received an injection of the drugs under study 15 minutes before the administration of intraperitoneal glucose. After measuring the glucose, an analysis under the curve for compound and dose was performed. This analysis allows evaluating the time intensity of the hyperglycemia. […]

Compound	enhancement of glucose-dependent insulin release caused by GLP-1 [1]	direct activation of glucose-activated insulin secretion [1]	allosteric modulation of insulin secretion stimulated by a fixed concentration of GLP-1 ([1]; insulinoma cells, 0.2 nM GLP-1, increasing compound concentration, FIG. 5)	allosteric modulation of insulin release stimulated by increasing doses of GLP-1 ([1]; insulinoma cells, compound at 0.1 nM, FIG. 4)	physiological response (glycemia) in the parenteral glucose overload test ([2]; rats deprived of food for 18 hours, glucose 2 gr/kg, compound 15 minutes before, FIG. 6)	intensity of the hyperglycemia (area under the curve of the glycemia) ([2]; rats, parenteral glucose overload test, several doses, FIG. 7)
FC(F)(F)c1ccc(-c2noc(CN3CCCC[C@H]3CCc3ccccn3)n2)cc1 [Compound C5, 5-[[(2S)-2-(2-pyridin-2-ylethyl)piperidin-1-yl]methyl]-3-[4-(trifluoromethyl)phenyl]-1,2,4-oxadiazole]	enhance	direct activators	–	–	–	–
NC(=O)C1CCN(Cc2nc(-c3ccc(C(F)(F)F)cc3)no2)CC1 [Compound C4, 1[[3-[4-(trifluoromethyl)phenyl]-1,2,4-oxadiazol-5-yl]methyl]piperidin-4-carboxamide]	enhance	direct activators	–	–	–	–
FC(F)(F)c1ccc(-c2noc(CN3CCCC(CN4CCOCC4)C3)n2)cc1 (stereo not shown) [Compound C6, 4-[[1[[3-[4-(trifluoromethyl)phenyl]-1,2,4-oxadiazol-5-yl]methyl]piperidin-3-yl]methyl]morpholine]	enhance	direct activators	enhances in a dose-dependent manner	enhances	improves the physiological response	induces in a dose-dependent manner a reduction of the intensity of the hyperglycemia
O=C(CCc1ccccc1)[C@@H]1CCCN(Cc2nc(-c3ccc(C(F)(F)F)cc3)no2)C1 [Compound C1, 3-phenyl-1-[(3R)-1-[[3-[4-(trifluoromethyl)phenyl]-1,2,4-oxadiazol-5-yl]methyl]piperidin-3-yl]propan-1-one]	enhance	direct activators	–	–	–	–
CC(=O)NCC[C@@H]1CCCCN1Cc1nc(-c2ccc(C(F)(F)F)cc2)no1 [Compound C3, N-[2-[(2S)-1-[[3-[4-(trifluoromethyl)phenyl]-1,2,4-oxadiazol-5-yl]methyl]piperidin-2-yl]ethyl]acetamide]	enhance	–	–	–	–	–
